Experimental data taken from patent US10730868B2, “Bicyclic heteroaryl substituted compounds” (BRISTOL-MYERS SQUIBB COMPANY, priority 2016, dated 2020).

molecular target: PAR4 (Homo sapiens (Human), UniProt Q96RI0); assay: PAR4 FLIPR assay (antagonism of agonist-peptide-induced calcium mobilization); format: cell-based; conditions: H-Ala-Phe(4-F)-Pro-Gly-Trp-Leu-Val-Lys-Asn-Gly-NH2-induced intracellular calcium mobilization, PAR4-expressing HEK293 cells; read-out: PAR4 FLTPR assay (IC50)
In short: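 HEK293 cells stably expressing human PAR4 (also endogenous PAR1), loaded with fluorescent calcium indicator in HBSS/20 mM HEPES; compounds added at 0.17% DMSO, read on FDSS for agonism, then 30 min RT before H-Ala-Phe(4-F)-peptide agonist challenge. Potency from 11-point concentration-response curves.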

Sequence of PAR4 (Q96RI0 18-385): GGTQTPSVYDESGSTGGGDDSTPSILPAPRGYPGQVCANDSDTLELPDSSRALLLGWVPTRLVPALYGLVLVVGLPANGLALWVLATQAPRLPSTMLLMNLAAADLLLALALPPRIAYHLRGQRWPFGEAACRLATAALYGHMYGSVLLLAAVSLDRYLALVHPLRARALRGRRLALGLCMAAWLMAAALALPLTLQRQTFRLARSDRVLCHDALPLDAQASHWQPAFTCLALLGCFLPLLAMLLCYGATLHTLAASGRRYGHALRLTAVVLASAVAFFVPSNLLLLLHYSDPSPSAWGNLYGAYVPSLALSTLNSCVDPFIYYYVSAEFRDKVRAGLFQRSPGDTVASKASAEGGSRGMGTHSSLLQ

Row | Compound | IC50 [nM]
1 | COc1cnc2c(-c3nc4cc(F)c(O[C@@H]5CC[C@@H]5OC(=O)Nc5cnc(C)nc5)cc4s3)cc(C)cc2n1 [Example 67] | 0.99
2 | COc1cnc2c(-c3nc4cc(F)c(O[C@@H]5CC[C@@H]5OC(=O)Nc5cnc(OCCO)nc5)cc4s3)cc(C)cc2n1 [Example 68] | 0.75
3 | COc1cnc2c(-c3nc4cc(F)c(O[C@H]5CC[C@H]5OC(=O)Nc5cnc(C)nc5)cc4s3)cc(C)cc2n1 [Example 69] | 1.2
4 | COc1cnc2c(-c3nc4cc(F)c(O[C@@H]5CC[C@@H]5OC(=O)Nc5cnc(CCO)nc5)cc4s3)cc(C)cc2n1 [Example 70] | 9
5 | COc1ccc(NC(=O)O[C@H]2CC[C@H]2Oc2cc3sc(-c4cc(C)cc5nc(OC)cnc45)nc3cc2F)cn1 [Example 72] | 1.1
6 | COc1ccc(NC(=O)O[C@@H]2CC[C@@H]2Oc2cc3sc(-c4cc(C)cc5nc(OC)cnc45)nc3cc2F)cn1 [Example 73] | 0.5
7 | CCOc1cnc2c(-c3nc4cc(F)c(O[C@@H]5CC[C@@H]5OC(=O)Nc5cnc(OCCO)nc5)cc4s3)cc(C)cc2n1 [Example 75] | 5.9
8 | COc1cnc2c(-c3nc4cc(F)c(O[C@@H]5CC[C@@H]5OC(=O)Nc5cnc(OCCO)nc5)cc4s3)cc(Cl)cc2c1 [Example 76] | 10
9 | CCOc1cnc2c(-c3nc4cc(F)c(O[C@@H]5CC[C@@H]5OC(=O)Nc5cnc(OCCO)nc5)cc4s3)cc(Cl)cc2c1 [Example 77] | 9.2
10 | COc1cnc2c(-c3nc4cc(F)c(O[C@@H]5CC[C@@H]5OC(=O)Nc5cnc(OCCO)nc5)cc4s3)cc(Cl)cc2n1 [Example 78] | 9.7
11 | COc1cnc2c(-c3nc4cc(F)c(O[C@@H]5CC[C@@H]5OC(=O)Nc5cnc(OCCO)nc5)cc4s3)cc(C#N)cc2n1 [Example 80] | 7
12 | COc1cnc2c(-c3nc4cc(F)c(O[C@@H]5CC[C@@H]5OC(=O)Nc5cnc(OCCO)nc5)cc4s3)cc(F)cc2c1 [Example 81] | 9.2
13 | COc1cnc2c(-c3nc4cc(F)c(O[C@H]5CC(F)(F)C[C@H]5OC(=O)Nc5cnc(C)nc5)cc4s3)cc(C)cc2n1 [Example 100] | 1.3
